This assay deals with interleukin 8 (IL-8). Kind of assay: IL-8 ELISA on supernatant of TNF alpha-challenged primary epidermal keratinocytes pre-treated with actives. To be noted: 24 h pre-treatment, then 10 ng/ml TNF alpha 24 h. In kind it is cell-based, human. The method, then: An in-vitro model has been developed to investigate the impact of an inflammatory stimulus on epidmeral keratinocytes, in which: • a. Cells are grown in 24-well (2.0 cm^2) plates. • b. The cells are pre-treated with active ingredient of interest for 24 hours then challenged with an inflammatory stimulus, 10 ng/ml tumour necrosis factor alpha (TNFa) in addition to the active ingredient, for a further 24 hours. • c. Cell culture supernatant and cell lysates were harvested at 24 hours (t24) post-TNFa treatment. • d. All cell culture supernatant was assayed for IL-8 as a measure of inflammatory response and cell culture lysate was assayed for total protein (BCA), as a measure of cytotoxicity.
Primary human epidermal keratinocyte cells were cultured and passaged in fully supplemented KGM-Gold media (Lonza) with 70 μM calcium added. Cells were routinely plated out in 24-well tissue culture dishes, at a seeding density of ˜50,000 cells/well in 1 ml medium/well for 24 hours, and incubated at 37° C. in 5% CO2.
Test solutions were prepared in KGM-Gold media without supplemented hydrocortisone and antibiotic. Media was removed from the cells and test solutions were added for 24 hours. The epidermal keratinocytes were then stimulated with an inflammatory challenge for 24 hours using 10 ng/ml TNFa in the presence of the test solutions. The treated supernatant (cell culture supernatant) was removed and stored at −20° C. prior to IL-8 analysis.
The epidermal keratinocytes were washed with 1 ml of Dulbecco's phosphated buffer solution (PBS) and 250 μl of ice cold lysis buffer (1% NP-40, 0.1% sodium deoxycholate, 0.1% sodium dodecyl sulphate, 6 mM sodium chloride and 0.05 M Tris at pH 7.6) containing protease inhibitor cocktail (Roche, Complete™ mini tablets 1 836 170) was added. The lysates were clarified by scraping the samples with a 1 ml syringe plunger and passing through an Acrowell™ filter plate (Pall) using an Acroprep™ vacuum manifold (Pall) into a 96 well microwell plate (Sterilin). The clarified lysates were stored at −20° C. until total protein estimation.
The total protein concentration of each clarified cell lysate was measured using the Pierce BCA protein assay kit so that the response to effect of the test substances could be normalised to ug protein. A set of eight standard solutions ranging from 0 to 1200 μg/ml protein was prepared from the supplied 2 mg/ml bovine serum albumin (BSA) stock solution. 10 μl of standard or cell lysate was added to duplicate wells of a flat-bottomed 96-well plate. The reagent solution was prepared according to the kit instructions from 50 parts reagent A and 1 part reagent B. 200 μl of the final reagent was added to each well. The plate was mixed, covered and incubated at 37° C. for 30 minutes and absorbance read at 562 nm. A protein standard curve was constructed and used to determine the protein concentration of each cell lysate.
The IL-8 concentration of each cell culture supernatant was assayed using the DuoSet Human IL-8 ELISA assay (R&D Systems DY208) according to the manufacturer's instructions. The IL-8 capture antibody was bound to the microtitre plate (Greiner) overnight at room temperature in phosphate buffered saline and removed by washing three times was wash buffer (0.05% Tween 20 in PBS) on an automatic plate washer. The plate was blocked with 300 μl of 1% bovine serum albumin (BSA) in phosphate buffered saline for 1 hour at room temperature and washed 3 times in wash buffer. Seven IL-8 standards were prepared in reagent diluent (0.1% BSA, 0.05% Tween 20 in PBS) at concentrations ranging from […]. 100 μl of cell culture supernatant or standard was added to duplicate wells and incubated at room temperature for 2 hours. The plate was washed 3 times with wash buffer before 100 μl of IL-8 detection antibody diluted in reagent diluent was added and incubated for 2 hours at room temperature. […]
Background: An ELISA detects its analyte on a solid surface through an enzyme-linked reagent.

For the compound `O=c1c(O)c(-c2cc(O)c(O)c(O)c2)oc2cc(O)cc(O)c12` [Myricetin], the “IL-8 (pg/μg protein)” value runs as follows: (myricetin alone 0.5 ug/ml) 3.874 pg/μg protein; (myricetin alone 1 ug/ml) 2.741 pg/μg protein; (myricetin alone 2.5 ug/ml) 1.784 pg/μg protein.

Regarding `CC(C)=CCC[C@@H](C)[C@H]1CC[C@H]2[C@@H]3CC=C4C[C@@H](O)CC[C@]4(C)[C@H]3CC[C@]12C` [Desmosterol], the “IL-8 (pg/μg protein)” value (sterol alone 1 uM) was 4.756 pg/μg protein, the “IL-8 (pg/μg protein)” value (sterol alone 5 uM) came to 4.799 pg/μg protein and the “IL-8 (pg/μg protein)” value (sterol alone 10 uM) is on record as 4.711 pg/μg protein.

With `CC[C@H](/C=C/[C@@H](C)[C@H]1CC[C@H]2[C@@H]3CC=C4C[C@@H](O)CC[C@]4(C)[C@H]3CC[C@]12C)C(C)C` [Stigmasterol], the “IL-8 (pg/μg protein)” value is, setting by setting: (sterol alone 1 uM) 4.638 pg/μg protein; (sterol alone 5 uM) 3.87 pg/μg protein; (sterol alone 10 uM) 4.964 pg/μg protein.

With `CC(C)[C@@H](C)/C=C/[C@@H](C)[C@H]1CC[C@H]2[C@@H]3CC=C4C[C@@H](O)CC[C@]4(C)[C@H]3CC[C@]12C` [Brassicasterol], the “IL-8 (pg/μg protein)” value (sterol alone 1 uM) turned out to be 3.394 pg/μg protein, the “IL-8 (pg/μg protein)” value (sterol alone 5 uM) worked out at 4.448 pg/μg protein and the “IL-8 (pg/μg protein)” value (sterol alone 10 uM) is 4.862 pg/μg protein.

The values are drawn from patent publication US10406091B2, “Skin anti-ageing composition” (Conopco, Inc., priority 2011, dated 2019).
